US11071731B2, “Allosteric modulators of the mu opioid receptor” (Chiromics, LLC, priority 2017, dated 2021)

Experiments:
[1] = target: T1, mu opioid receptor (MOR) (Homo sapiens, UniProt P35372); experiment: Hit Hunter cAMP signaling assay (adenylyl cyclase inhibition), PAM mode with EC20 endomorphin-1; type: cell-based; details: for cAMP Max. Resp.: maximal response for adenylyl cyclase inhibition
[2] = target: T1, mu opioid receptor (MOR); experiment: PathHunter β-arrestin recruitment assay, PAM mode with EC20 endomorphin-1; type: cell-based; details: for allosteric activity for β-arrestin recruitment: EC20 endomorphin-1 concentration of 4.5 nM; for β-arr Max. Resp.: maximal response for β-arrestin recruitment
Procedure, shortened: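 β-Arrestin recruitment to the receptor was tracked by chemiluminescent β-galactosidase activity from complementing fragments (ED on receptor, EA on β-arrestin). Per-compound outputs were EC50 and percent maximal response.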

[3] = cAMP EC50, adenylyl cyclase inhibition
[4] = β-arrestin recruitment, read-out: β-arr. EC50
[5] = adenylyl cyclase inhibition, read-out: cAMP EC50

T1 sequence (P35372 whole entry): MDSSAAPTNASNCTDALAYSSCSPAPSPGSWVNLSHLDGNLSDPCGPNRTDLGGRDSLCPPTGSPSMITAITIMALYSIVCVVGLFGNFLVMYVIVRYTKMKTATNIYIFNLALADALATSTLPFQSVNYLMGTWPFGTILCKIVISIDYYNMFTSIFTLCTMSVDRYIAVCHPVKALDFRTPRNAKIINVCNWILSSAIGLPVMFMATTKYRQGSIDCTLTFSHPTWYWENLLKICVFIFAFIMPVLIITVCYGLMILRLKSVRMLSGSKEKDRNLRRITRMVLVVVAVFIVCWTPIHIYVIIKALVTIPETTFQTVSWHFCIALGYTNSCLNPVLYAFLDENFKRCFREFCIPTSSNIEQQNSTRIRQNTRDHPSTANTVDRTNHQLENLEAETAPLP

| Compound | EC50 [1, 3] [nM] | cAMP Max. Resp. [1] | β-arr Max. Resp. [2] | EC50 [2, 4] [nM] | EC50 [1, 5] [nM] | further results |
| --- | --- | --- | --- | --- | --- | --- |
| Fc1cc(C2C3CCC(C3)N2Cc2cc(Cl)ccc2F)cc(C(F)(F)F)c1 (stereo not shown) [compound 216] | > 2100 | D (D represents a maximal response of < 40%) | F (F represents a maximal response of > 60%) | < 700 | – | allosteric activity for cAMP signaling ([1]; EC20 endomorphin-1 concentration of 0.45 nM): silent allosteric activity; allosteric activity for β-arrestin recruitment [2]: high positive allosteric activity; allosteric activity for β-arrestin recruitment ([2]; listed as Compound No. 216): high allosteric modulatory capability |
| Fc1cnc(Cl)nc1N1CCCCC1c1cccc(OC(F)(F)F)n1 (stereo not shown) [compound 131] | 700 to 2100 | D (D represents a maximal response of < 40%) | F (F represents a maximal response of > 60%) | 700 to 2100 | – | – |
| Fc1ccc(C2CCCCN2c2nc(Cl)ncc2F)cc1F (stereo not shown) [compound 129] | 700 to 2100 | E (E represents a maximal response of 40-60%) | F (F represents a maximal response of > 60%) | < 700 | – | – |
| O=S(=O)(c1ccc(Cl)cc1)N1CCCCC1c1cncc(C(F)(F)F)c1 (racemic) [compound 83] | – | D (D represents a maximal response of < 40%) | D (D represents a maximal response of < 40%) | > 2100 | > 2100 | cAMP Max Resp. ([1]; adenylyl cyclase inhibition, activity switching by MOR PAMs): D (D represents a maximal response of < 40%); EC50 ([1]; adenylyl cyclase inhibition, activity switching by MOR PAMs, read-out: cAMP EC50): > 2100 nM; β-arrestin Max Response ([2]; β-arrestin recruitment, activity switching by MOR PAMs): D (D represents a maximal response of < 40%); EC50 ([2]; β-arrestin recruitment, activity switching by MOR PAMs, read-out: β-arrestin EC50): > 2100 nM |
| Fc1cnc(Cl)nc1N1CCCCC1c1cnc2cccnn12 (stereo not shown) [compound 337] | < 700 | D (D represents a maximal response of < 40%) | D (D represents a maximal response of < 40%) | < 700 | – | – |
| Fc1cnc(Cl)nc1N1CCCCC1c1ccc(Br)c(C(F)(F)F)c1 (stereo not shown) [compound 287] | < 700 | D (D represents a maximal response of < 40%) | F (F represents a maximal response of > 60%) | 700 to 2100 | – | – |
| CC1CCN(S(=O)(=O)c2ccc(Cl)cc2)C1c1ccc(OC(F)(F)F)c(Br)c1 (mixture of isomers) [Compound 94] | – | D (D represents a maximal response of < 40%) | F (F represents a maximal response of > 60%) | < 700 | < 700 | – |
| Fc1ncc(F)c(N2CCCCC2c2cccc(C(F)(F)F)c2)n1 (stereo not shown) [compound 368] | < 700 | D (D represents a maximal response of < 40%) | D (D represents a maximal response of < 40%) | < 700 | – | – |
| N#Cc1cc(C2CCCCN2S(=O)(=O)c2ccc(Cl)cc2)ccn1 (racemic) [compound 80] | – | D (D represents a maximal response of < 40%) | E (E represents a maximal response of 40-60%) | > 2100 | > 2100 | – |
| Fc1cnc(Cl)nc1N1CCCCC1c1cncc(Cl)c1 (stereo not shown) [compound 280] | – | E (E represents a maximal response of 40-60%) | F (F represents a maximal response of > 60%) | – | – | EC50 [1]: > 2100 nM |
| Fc1ccc(C2CCCCN2Cc2cc(Cl)ccc2Cl)cc1Cl (stereo not shown) [compound 158] | < 700 | D (D represents a maximal response of < 40%) | F (F represents a maximal response of > 60%) | 700 to 2100 | – | – |
| Fc1cccc(CN2CCCCC2c2cccc(C(F)(F)F)n2)c1 (stereo not shown) [compound 152] | 700 to 2100 | E (E represents a maximal response of 40-60%) | F (F represents a maximal response of > 60%) | > 2100 | – | – |
| Fc1ccc(C2COCCN2c2nc(Cl)ncc2F)cc1Cl (racemic) [Compound 189] | – | F (F represents a maximal response of > 60%) | F (F represents a maximal response of > 60%) | 700 to 2100 | 700 to 2100 | – |
